Experimental data reported in US20230322723A1, “COMPOUNDS FOR SUPPRESSING EGFR MUTANT CANCER AND PHARMACEUTICAL USE THEREOF” (J2H BIOTECH INC., priority 2020, published 2023).

What was measured:
EGFR^L858R+T790M+C797S = molecular target: T1, EGFR^L858R+T790M+C797S (Homo sapiens, UniProt P00533, C797S/L858R/T790M); experiment: EGFR protein degradation test (Western blot) in Ba/F3 cells expressing mutant EGFR L858R+T790M+C797S (LTC); format: cell-based; conditions: compounds at 0.1 μM and 1 μM, 24 hours, Western blot with EGFR antibody
T1 construct: expressed in transfected cells; host or cells: Ba/F3
T1 sequence (P00533 25-1210 T790M/C797S/L858R): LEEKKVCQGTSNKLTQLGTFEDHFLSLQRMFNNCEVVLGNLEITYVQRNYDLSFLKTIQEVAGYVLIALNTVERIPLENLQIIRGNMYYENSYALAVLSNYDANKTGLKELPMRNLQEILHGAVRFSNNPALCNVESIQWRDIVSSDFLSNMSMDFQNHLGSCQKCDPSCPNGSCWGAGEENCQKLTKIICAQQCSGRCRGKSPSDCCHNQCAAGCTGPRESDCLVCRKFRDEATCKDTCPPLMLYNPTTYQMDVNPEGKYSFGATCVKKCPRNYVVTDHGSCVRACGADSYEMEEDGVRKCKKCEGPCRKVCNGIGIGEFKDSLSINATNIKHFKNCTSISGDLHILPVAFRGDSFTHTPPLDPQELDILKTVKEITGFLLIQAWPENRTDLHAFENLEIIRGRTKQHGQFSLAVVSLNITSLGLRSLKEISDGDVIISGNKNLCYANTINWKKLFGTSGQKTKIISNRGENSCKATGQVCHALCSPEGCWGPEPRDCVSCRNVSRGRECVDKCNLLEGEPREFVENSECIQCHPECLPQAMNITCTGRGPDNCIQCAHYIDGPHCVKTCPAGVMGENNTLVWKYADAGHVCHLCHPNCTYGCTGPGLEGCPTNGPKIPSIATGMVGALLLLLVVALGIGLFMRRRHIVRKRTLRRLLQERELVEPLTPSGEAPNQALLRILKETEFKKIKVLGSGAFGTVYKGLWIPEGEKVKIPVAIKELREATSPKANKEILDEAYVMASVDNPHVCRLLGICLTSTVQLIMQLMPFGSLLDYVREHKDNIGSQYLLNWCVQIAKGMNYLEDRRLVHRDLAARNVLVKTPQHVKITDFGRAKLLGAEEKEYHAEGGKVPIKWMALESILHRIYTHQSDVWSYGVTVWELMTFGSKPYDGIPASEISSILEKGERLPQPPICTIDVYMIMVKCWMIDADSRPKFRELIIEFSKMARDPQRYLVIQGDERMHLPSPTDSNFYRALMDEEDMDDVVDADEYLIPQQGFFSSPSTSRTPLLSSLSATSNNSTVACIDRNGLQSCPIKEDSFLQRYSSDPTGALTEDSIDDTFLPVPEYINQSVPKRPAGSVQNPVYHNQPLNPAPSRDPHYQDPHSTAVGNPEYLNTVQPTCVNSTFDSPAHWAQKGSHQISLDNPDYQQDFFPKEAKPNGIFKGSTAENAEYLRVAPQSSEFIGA
Method: (§1) The ability of the compounds of the present invention to degrade the mutant EGFR protein was confirmed in Ba/F3 cells expressing normal EGFR, mutant EGFR^del19+T790M+C797S or mutant EGFR^L858R+T790M+C797S. A Western blot test using the EGFR antibody was performed.
(§2) Specifically, Ba/F3 cells expressing EGFR were cultured in RPMI 1640 (Gibco, NY, USA) containing 10% fetal bovine serum (FBS, Gibco, NY, USA). Cells expressing normal EGFR, mutant EGFR^del19+T790M+C797S or mutant EGFR^L858R+T790M+C797S were treated with the compounds of the present invention at concentrations of 0.1 μM and 1 μM, respectively, for 24 hours. After that, it was washed twice with phosphate buffered saline (PBS) and SDS-PAGE was performed with 30 μg of cell lysate. After the protein separated on the gel was transferred to a nitrocellulose membrane, the expression level of the EGFR protein was confirmed using an EGFR antibody (Santa Cruz biotechnology, Santacruz, CA, USA). EGFR bands separated by Western blotting were quantitatively analyzed with Fluo-S MultiImager (Bio-Rad, Hercules, CA, USA).

EGFR^del19+T790M+C797S = experiment: EGFR protein degradation test (Western blot) in Ba/F3 cells expressing mutant EGFR del19+T790M+C797S (DTC); format: cell-based; conditions: compounds at 0.1 μM and 1 μM, 24 hours, Western blot with EGFR antibody
Method: as §1, §2

COc1cc(N2CCN(CCOCCOc3cccc4c3C(=O)N(C3CCC(=O)NC3=O)C4=O)CC2)ccc1Nc1ncc(Cl)c(Nc2ccccc2N(C)S(C)(=O)=O)n1 (stereo not shown) [Compound 12, N-(2-((5-chloro-2-((4-(4-(2-(2-((2-(2,6-dioxopiperidin-3-yl)-1,3-dioxoisoindolin-4-yl)oxy)ethoxy)ethyl)piperazin-1-yl)-2-methoxyphenyl)amino)pyrimidin-4-yl)amino)phenyl)N-methylmethanesulfonamide]
LTC (EGFR^L858R+T790M+C797S) protein degradation (EGFR^L858R+T790M+C797S): − (Protein degradation < 20%)
DTC (EGFR^del19+T790M+C797S) protein degradation (EGFR^del19+T790M+C797S): − (Protein degradation < 20%)

COc1cc(N2CCC(N3CCN(CCOCCOc4cccc5c4C(=O)N(C4CCC(=O)NC4=O)C5=O)CC3)CC2)ccc1Nc1ncc(Cl)c(Nc2ccccc2N(C)S(C)(=O)=O)n1 (stereo not shown) [Compound 13, N-(2-((5-chloro-2-((4-(4-(4-(2-(2-((2-(2,6-dioxopiperidin-3-yl)-1,3-dioxoisoindolin-4-yl)oxy)ethoxy)ethyl)piperazin-1-yl)piperidin-1-yl)-2-methoxyphenyl)amino)pyrimidin-4-yl)amino)phenyl)N-methylmethanesulfonamide]
LTC (EGFR^L858R+T790M+C797S) protein degradation (EGFR^L858R+T790M+C797S): + (Protein degradation 20~80%)
DTC (EGFR^del19+T790M+C797S) protein degradation (EGFR^del19+T790M+C797S): + (Protein degradation 20~80%)

COc1cc(N2CCN(CCCCOc3cccc4c3C(=O)N(C3CCC(=O)NC3=O)C4=O)CC2)ccc1Nc1ncc(Cl)c(Nc2ccccc2N(C)S(C)(=O)=O)n1 (stereo not shown) [Compound 14, N-(2-((5-chloro-2-((4-(4-(4-((2-(2,6-dioxopiperidin-3-yl)-1,3-dioxoisoindolin-4-yl)oxy)butyl)piperazin-1-yl)-2-methoxyphenyl)amino)pyrimidin-4-yl)amino)phenyl)-N-methylmethanesulfonamide]
LTC (EGFR^L858R+T790M+C797S) protein degradation (EGFR^L858R+T790M+C797S): + (Protein degradation 20~80%)
DTC (EGFR^del19+T790M+C797S) protein degradation (EGFR^del19+T790M+C797S): − (Protein degradation < 20%)

COc1cc(N2CCC(N3CCN(CCCCOc4cccc5c4C(=O)N(C4CCC(=O)NC4=O)C5=O)CC3)CC2)ccc1Nc1ncc(Cl)c(Nc2ccccc2N(C)S(C)(=O)=O)n1 (stereo not shown) [Compound 15, N-(2-((5-chloro-2-((4-(4-(4-(4-((2-(2,6-dioxopiperidin-3-yl)-1,3-dioxoisoindolin-4-yl)oxy)butyl)piperazin-1-yl)piperidin-1-yl)-2-methoxyphenyl)amino)pyrimidin-4-yl)amino)phenyl)-N-methylmethanesulfonamide]
LTC (EGFR^L858R+T790M+C797S) protein degradation (EGFR^L858R+T790M+C797S): + (Protein degradation 20~80%)
DTC (EGFR^del19+T790M+C797S) protein degradation (EGFR^del19+T790M+C797S): + (Protein degradation 20~80%)

COc1cc(N2CCN(CCOCCNc3cccc4c3C(=O)N(C3CCC(=O)NC3=O)C4=O)CC2)ccc1Nc1ncc(Cl)c(Nc2ccccc2N(C)S(C)(=O)=O)n1 (stereo not shown) [Compound 16]
LTC (EGFR^L858R+T790M+C797S) protein degradation (EGFR^L858R+T790M+C797S): + (Protein degradation 20~80%)
DTC (EGFR^del19+T790M+C797S) protein degradation (EGFR^del19+T790M+C797S): − (Protein degradation < 20%)

Cc1ncsc1-c1ccc(CNC(=O)[C@H]2C[C@@H](O)CN2C(=O)[C@@H](NC(=O)CCCCN2CCN(c3ccc(Nc4ncc(Cl)c(Nc5ccccc5N(C)S(C)(=O)=O)n4)cc3F)CC2)C(C)(C)C)cc1 [Compound 17, (2R,4R)-1-((S)-2-(5-(4-(4-((5-chloro-4-((2-(N-methylmethylsulfonamido)phenyl)amino)pyrimidin-2-yl)amino)-2-fluorophenyl)piperazin-1-yl)pentanamido)3,3-dimethylbutanoyl)4-hydroxy-N-(4-(4-methylthiazol-5-yl)benzyl)pyrrolidin-2-carboxamide]
LTC (EGFR^L858R+T790M+C797S) protein degradation (EGFR^L858R+T790M+C797S): − (Protein degradation < 20%)
DTC (EGFR^del19+T790M+C797S) protein degradation (EGFR^del19+T790M+C797S): + (Protein degradation 20~80%)

Cc1ncsc1-c1ccc(CNC(=O)[C@H]2C[C@@H](O)CN2C(=O)[C@@H](NC(=O)CCCCN2CCN(C3CCN(c4ccc(Nc5ncc(Cl)c(Nc6ccccc6N(C)S(C)(=O)=O)n5)cc4F)CC3)CC2)C(C)(C)C)cc1 [Compound 18, (2R,4R)-1-((S)-2-(5-(4-(1-(4-((5-chloro-4-((2-(N-methylmethylsulfonamido)phenyl)amino)pyrimidin-2-yl)amino)-2-fluorophenyl)piperidin-4-yl)piperazin-1-yl)pentanamido)-3,3-dimethylbutanoyl)-4-hydroxy-N-(4-(4-methylthiazol-5-yl)benzyl)pyrrolidin-2-carboxamide]
LTC (EGFR^L858R+T790M+C797S) protein degradation (EGFR^L858R+T790M+C797S): − (Protein degradation < 20%)
DTC (EGFR^del19+T790M+C797S) protein degradation (EGFR^del19+T790M+C797S): − (Protein degradation < 20%)

Cc1ncsc1-c1ccc(CNC(=O)[C@H]2C[C@@H](O)CN2C(=O)[C@@H](NC(=O)CN2CCN(C3CCN(c4ccc(Nc5ncc(Cl)c(Nc6ccccc6N(C)S(C)(=O)=O)n5)cc4F)CC3)CC2)C(C)(C)C)cc1 [Compound 19, (2R,4R)-1-((S)-2-(2-(4-(1-(4-((5-chloro-4-((2-(N-methylmethylsulfonamido)phenyl)amino)pyrimidin-2-yl)amino)-2-fluorophenyl)piperidin-4-yl)piperazin-1-yl)acetamido)-3,3-dimethylbutanoyl)-4-hydroxy-N-(4-(4-methylthiazol-5-yl)benzyl)pyrrolidin-2-carboxamide]
LTC (EGFR^L858R+T790M+C797S) protein degradation (EGFR^L858R+T790M+C797S): + (Protein degradation 20~80%)
DTC (EGFR^del19+T790M+C797S) protein degradation (EGFR^del19+T790M+C797S): ++ (Protein degradation > 80%)

COc1cc(N2CCC(N3CCN(CC(=O)Nc4cccc5c4C(=O)N(C4CCC(=O)NC4=O)C5=O)CC3)CC2)ccc1Nc1ncc(Cl)c(Nc2ccccc2N(C)S(C)(=O)=O)n1 (stereo not shown) [Compound 21, 2-(4-(1-(4-((5-chloro-4-((2-(N-methylmethylsulfonamido)phenyl)amino)pyrimidin-2-yl)amino)-3-methoxyphenyl)piperidin-4-yl)piperazin-1-yl)-N-(2-(2,6-dioxopiperidin-3-yl)-1,3-dioxoisoindolin-4-yl)acetamide]
LTC (EGFR^L858R+T790M+C797S) protein degradation (EGFR^L858R+T790M+C797S): − (Protein degradation < 20%)
DTC (EGFR^del19+T790M+C797S) protein degradation (EGFR^del19+T790M+C797S): − (Protein degradation < 20%)

COc1cc(N2CCC(CN3CCN(CC(=O)Nc4cccc5c4C(=O)N(C4CCC(=O)NC4=O)C5=O)CC3)CC2)ccc1Nc1ncc(Cl)c(Nc2ccccc2N(C)S(C)(=O)=O)n1 (stereo not shown) [Compound 23, 2-(4-((1-(4-((5-chloro-4-((2-(N-methylmethylsulfonamido)phenyl)amino)pyrimidin-2-yl)amino)-3-methoxyphenyl)piperidin-4-yl)methyl)piperazin-1-yl)-N-(2-(2,6-dioxopiperidin-3-yl)-1,3-dioxoisoindolin-4-yl)acetamide]
LTC (EGFR^L858R+T790M+C797S) protein degradation (EGFR^L858R+T790M+C797S): − (Protein degradation < 20%)
DTC (EGFR^del19+T790M+C797S) protein degradation (EGFR^del19+T790M+C797S): − (Protein degradation < 20%)

COc1cc(N2CCN(CC3CCN(CC(=O)Nc4cccc5c4C(=O)N(C4CCC(=O)NC4=O)C5=O)CC3)CC2)ccc1Nc1ncc(Cl)c(Nc2ccccc2N(C)S(C)(=O)=O)n1 (stereo not shown) [Compound 25, 2-(4-((4-(4-((5-chloro-4-((2-(N-methylmethylsulfonamido)phenyl)amino)pyrimidin-2-yl)amino)-3-methoxyphenyl)piperazin-1-yl)methyl)piperidin-1-yl)-N-(2-(2,6-dioxopiperidin-3-yl)-1,3-dioxoisoindolin-4-yl)acetamide]
LTC (EGFR^L858R+T790M+C797S) protein degradation (EGFR^L858R+T790M+C797S): − (Protein degradation < 20%)
DTC (EGFR^del19+T790M+C797S) protein degradation (EGFR^del19+T790M+C797S): − (Protein degradation < 20%)

COc1cc(N2CCC(CN3CCC(C(=O)N[C@H](C(=O)N4C[C@H](O)C[C@H]4C(=O)NCc4ccc(-c5scnc5C)cc4)C(C)(C)C)CC3)CC2)ccc1Nc1ncc(Cl)c(Nc2ccccc2N(C)S(C)(=O)=O)n1 [Compound 29, 1-((1-(4-((5-chloro-4-((2-(N-methylmethylsulfonamido)phenyl)amino)pyrimidin-2-yl)amino)-3-methoxyphenyl)piperidin-4-yl)methyl)-N—((S)-1-((2S,4R)-4-hydroxy-2-((4-(4-methylthiazol-5-yl)benzyl)carbamoyl)pyrrolidin-1-yl)-3,3-dimethyl-1-oxobutan-2-yl)piperidin-4-carboxamide]
LTC (EGFR^L858R+T790M+C797S) protein degradation (EGFR^L858R+T790M+C797S): − (Protein degradation < 20%)
DTC (EGFR^del19+T790M+C797S) protein degradation (EGFR^del19+T790M+C797S): − (Protein degradation < 20%)

COc1cc(N2CCC3(CCN(CCC(=O)Nc4cccc5c4C(=O)N(C4CCC(=O)NC4=O)C5=O)CC3)CC2)ccc1Nc1ncc(Cl)c(Nc2ccccc2N(C)S(C)(=O)=O)n1 (stereo not shown) [Compound 30, 3-(9-(4-((5-chloro-4-((2-(N-methylmethylsulfonamido)phenyl)amino)pyrimidin-2-yl)amino)-3-methoxyphenyl)-3,9-diazaspiro[5,5]undecan-3-yl)-N-(2-(2,6-dioxopiperidin-3-yl)-1,3-dioxoisoindolin-4-yl)propanamide]
LTC (EGFR^L858R+T790M+C797S) protein degradation (EGFR^L858R+T790M+C797S): − (Protein degradation < 20%)
DTC (EGFR^del19+T790M+C797S) protein degradation (EGFR^del19+T790M+C797S): − (Protein degradation < 20%)

COc1cc(N2CC3(CN(CCC(=O)Nc4cccc5c4C(=O)N(C4CCC(=O)NC4=O)C5=O)C3)C2)ccc1Nc1ncc(Cl)c(Nc2ccccc2N(C)S(C)(=O)=O)n1 (stereo not shown) [Compound 32, 3-(6-(4-((5-chloro-4-((2-(N-methylmethylsulfonamido)phenyl)amino)pyrimidin-2-yl)amino)-3-methoxyphenyl)-2,6-diazaspiro[3,3]heptan-2-yl)-N-(2-(2,6-dioxopiperidin-3-yl)-1,3-dioxoisoindolin-4-yl)propanamide]
LTC (EGFR^L858R+T790M+C797S) protein degradation (EGFR^L858R+T790M+C797S): − (Protein degradation < 20%)
DTC (EGFR^del19+T790M+C797S) protein degradation (EGFR^del19+T790M+C797S): − (Protein degradation < 20%)
